Test results: publication PMC9458217, “Synthesis and Biological Evaluation of Cassane Diterpene (5α)-Vuacapane-8(14), 9(11)-Diene and of Some Related Compounds” (Molecules, 2022)
≈ marks a conversion by molar mass, not a printed value. Where “and” joins values, the source holds several entries; their conditions need not be identical. Equal entries are not always repeated. Where two headings read alike, the source gives them in different places.

Columns and labels:
[1] = tested on: Micrococcus flavus; set-up: method as in PMID 17418286; details: cited from earlier work
[2] = tested on: Staphylococcus aureus; set-up: method as in PMID 17418286; details: cited from earlier work
[3] = tested on: HT29 cells; experiment: Annexin V-FITC/PI flow cytometry (apoptosis) in HT29 cells; format: cell-based, human; details: 72 h
Method: Most currently used anticancer drugs trigger the apoptosis process as a key target and induce it in cancer cells. Phosphatidylserine (PS) externalization is a typical characteristic of early phase apoptosis. […].
As such wise, apoptosis was assessed by flow cytometry using a FACScan (fluorescence-activated cell sorter) flow cytometer (Coulter Corporation, Hialeah, FL, USA). For this assay, 5 × 10^4 HT29 cells were plated in 24-well plates with 1.5 mL of medium and incubated for 24 h. […] The cells were collected and resuspended in a binding buffer (10 mM HEPES/NaOH, pH 7.4, 140 mM NaCl, 2.5 mM CaCl2). At room temperature in darkness, Annexin V-FITC conjugate (1 μg/mL) was then added and incubated for 15 min. Cells were stained with 5 μL of 1 mg/mL PI solution, just before the analysis. In each experiment, approximately 10 × 10^3 cells were analyzed, and the experiment was duplicated twice.

[4] = tested on: HepG2 human hepatocarcinome cell-line; experiment: MTT cytotoxicity on HepG2 cells; details: HepG2, 72 h
Method: (§2) These studies were performed using the MTT assay, based on formazan dye formation and expressed as a percentage with respect to untreated control cells (100% of cell metabolism).
(§3) The effect of compounds on the cell viability was determined by the MTT method [27] (Sigma, St. Louis, MO, USA). The cytotoxicity of the compounds was detected by measuring the absorbance of MTT dye staining of cells with metabolism capacity. […] Finally, after 72 h, 100 μL of MTT solution (0.5 mg/mL) in 50% of PBS and 50% of the medium was added to each well. After 1.5 h of incubation, formazan was re-suspended in 100 μL of DMSO, and each concentration was tested in triplicate.
(§4) Experimental cytotoxicity data were fitted to a sigmoidal function (y = ymax/ (x/a)^−b) by non-linear regression. […] All shown data are representative of at least two independent experiments performed in triplicate. All quantitative data were summarized as the means ± standard deviation (SD).

[5] = tested on: RAW 264.7 monocyte/macrophage murine cells; experiment: MTT cytotoxicity on RAW 264.7 cells; format: cell-based; details: Mus musculus
Method: MTT is transformed to formazan in cells with metabolism capacity (viable cells), as the number of viable cells is proportional to formazan concentration; this assay was used to determine the cytotoxicity of the compounds.
In all experiments, subconfluent monolayer cells were used.
The effect of compounds on the cell viability was determined by the MTT method (Sigma, St. Louis, MO, USA). The cytotoxicity of the compounds was detected by measuring the absorbance of MTT dye staining of cells with metabolism capacity. […] Finally, after 72 h, 100 μL of MTT solution (0.5 mg/mL) in 50% of PBS and 50% of the medium was added to each well. After 1.5 h of incubation, formazan was re-suspended in 100 μL of DMSO, and each concentration was tested in triplicate.
(§1) Experimental cytotoxicity data were fitted to a sigmoidal function (y = ymax/ (x/a)^−b) by non-linear regression. […] Similar analyses were performed to obtain the IC50 of NO production (IC50 NO). All shown data are representative of at least two independent experiments performed in triplicate. All quantitative data were summarized as the means ± standard deviation (SD).

[6] = tested on: HT29 colon adenocarcinoma cells; experiment: HT29 cell cycle arrest and distribution, flow cytometry with PI; format: cell-based, human; details: for decrease in S phase cell percentage / increase of G0/G1 phase population with respect to untreated control: 72 h
Source text: Flow cytometry was used to measure DNA ploidy and to determine possible alterations in cell cycle profiles. […]. […] […]. Changes in the G2/M phase were less significant. Although changes in the cell cycle were observed, they were of a lower magnitude and insignificant for compound 20. Therefore, those changes could be produced by the apoptotic process activation and not by cytostatic or differentiation process induction. […]. Further assays will be necessary to asseverate this point.
The method was performed by flow cytometry after propidium iodide staining (PI). […]. After that, cells were stored on ice and were stained with 20 µL of 1 mg/mL PI solution just before measurement. Approximately 10 × 10^3 cells were analysed in each experiment. The experiments were performed three times with two replicates per assay. Finally, the samples were analysed using a flow cytometer and the number of cells in each stage of the cell cycle was estimated by fluorescence-associated cell sorting (FACS) at 488 nm in an Epics XL flow cytometer (Coulter Corporation, Hialeah, FL, USA).

[7] = tested on: colon adenocarcinoma HT29 cells; experiment: Mitochondrial membrane potential, Rh123/PI flow cytometry in HT29 cells; format: cell-based, human; details: HT29, IC50 and IC80 concentrations, 72 h
Source text: The apoptotic effects of anticancer agents can occur through the activation of two major apoptotic pathways: intrinsic and extrinsic apoptotic pathways, Thus, the study of the loss of the mitochondrial membrane potential (MMP) of tumor cells can provide information on the activation mechanism and the apoptotic pathway induced in response to anticancer compounds. When the mitochondria undergo disruption and are involved in the loss of MMP, the activation is then intrinsic (mitochondrial).
The electrochemical gradient across the mitochondrial membrane was studied by analytical flow cytometry using dihydrorhodamine (DHR). […] The medium renewal was achieved by adding fresh medium with DHR to a final concentration of […]. […] The fluorescence intensity was measured using a FACScan flow cytometer (fluorescence-activated cell sorter). The experiments were performed three times with two replicates per assay.

[8] = tested on: LPS-stimulated RAW 264.7 murine macrophage cells; experiment: Inhibition of NO production (nitrite, Griess reaction) in LPS-stimulated RAW 264.7 cells; format: cell-based; details: LPS-activated RAW 264.7, 72 h of incubation
Method: The activation of the inflammatory process induces nitric oxide, NO, released as a second messenger. NO production can be used as the main indicator to assess inflammatory activity, which can be measured using nitrite (NO^2–) quantification (proportional to the released NO), determined through the Griess reaction. […] Inhibition percentages were calculated with respect to the increase between positive control (only LPS treated control cells) and negative control (untreated control cells).
The absorbance was referred to nitrite standard curve to determine the concentration of nitrite in the supernatant of each experimental sample. The percentage of NO production was determined, assigning 100% at the increase between negative control (untreated cells) and positive control (cells only treated with 10 μg/mL of LPS).
as §1

[9] = tested on: HT29 human colorectal adenocarcinoma cell line; experiment: MTT cytotoxicity on HT29 cells; details: HT-29, 72 h
Method: as §2, §3, §4

[10] = tested on: RAW 264.7 cells, activated by LPS; experiment: Cell cycle distribution of LPS-activated RAW 264.7 cells, flow cytometry with PI; format: cell-based, murine
Method: The cell-cycle distribution was analyzed by flow cytometry with propidium iodide (IP) staining (Figure 3). Significant growth arrest of the cell cycle in LPS-induced RAW 264.7 cells produced 100% detention in the G0/G1 phase (positive control) compared to the negative control (49.6%). After incubation with compound 20, the percentage of cells found in the G0/G1 phase was 29%, 32%, and 36%, respectively, at the assayed concentrations. Similar results were found for compound 16 (35%, 38%, and 39%) after 72 h of incubation at the same concentrations. This decrease was accompanied by the consequent increase in the number of cells in the S phase: 70%, 68%, and 56%, respectively, for compound 20, and 63%, 61%, and 59% for compound 16. […] This recovery of the cell cycle with respect to control cells (only LPS treated) could be a consequence of the anti-inflammatory effect produced by the tested compounds, which increase cell division, rescuing RAW 264.7 cells from LPS-induced arrest during their monocyte/macrophage differentiation process.
DNA content is directly proportional to the PI fluorescence; it allows us to determine the percentage of cells in each cell cycle phase. Using a fluorescence-activated cell sorter (FACS) at 488 nm in an Epics XL flow cytometer (Coulter Corporation, Hialeah, FL, USA), cell subpopulations could be visualized with different DNA contents. […] By treating cells only with LPS, the positive control was performed. However, the negative control was prepared, exposing cells […]. After treatment, cells were washed twice with PBS and trypsine solution, then resuspended in TBS 1X (10 Mm Tris, 150 Mm NaCl) and then Vindelov buffer (100 mM Tris, 100 Mm NaCl, 10 mg/mL Rnasa, 1 mg/mL PI, pH 8) was added. The samples were placed for 15 min on ice. Immediately before FACS analysis, cells were stained with 20 μL of 1 mg/mL PI solution. Data were analyzed to determine the percentage of cells in each cell cycle phase (G0/G1, S, and G2/M).

[11] = tested on: NO; set-up: method as in PMID 34990974; details: read-out: NO inhibition IC50; cited from earlier work
[12] = tested on: LPS-induced J774.A1 macrophage cells; set-up: method as in PMID 34990974; details: 50 μM, natural compounds; cited from earlier work

COC(=O)[C@@]1(C)CCC[C@]2(C)c3cc4occc4c(C)c3CC[C@@H]12 [benthaminin 1]
MIC [1]: 47.8 µM (≈ 15.6 µg/mL) | MIC [2]: 47.8 µM (≈ 15.6 µg/mL)

Cc1c(C=O)c(O)cc2c1CC[C@H]1C(C)(C)CCC[C@]21C [Compound 20]
early apoptosis ([3]; HT29, IC50 concentration): 27.57% | late apoptosis ([3]; HT29, IC50 concentration): 49.97% | total apoptosis (early plus late apoptotic cells) ([3]; HT29, IC50 concentration): 76.25% | early apoptosis ([3]; HT29, IC80 concentration): 41.40% | late apoptosis ([3]; HT29, IC80 concentration): 45.40% | total apoptosis (early plus late apoptotic cells) ([3]; HT29, IC80 concentration): 80% and 86.8% | IC50 [4]: 8.41 ± 0.3 µg/mL (≈ 29.4 µM) | IC20 ([5]; RAW264.7, RAW 264.7, MTT, 72 h of incubation, 20% cell viability inhibition, read-out: IC20): 7.86 ± 3.97 µg/mL (≈ 27.4 µM) | IC80 ([5]; RAW264.7, RAW 264.7, MTT, 72 h of incubation, 80% cell viability inhibition, read-out: IC80): 9.35 ± 0.95 µg/mL (≈ 32.6 µM) | IC50 ([5]; RAW264.7, RAW 264.7, MTT, 72 h of incubation, read-out: IC50): 8.34 ± 2.51 µg/mL (≈ 29.1 µM) | cell cycle arrest at the G0/G1 phase (cell percentage) ([6]; HT29, IC50 concentration): 63.6% | decrease in S phase cell percentage ([6]; HT29, IC50 concentration): 6% | increase of G0/G1 phase population with respect to untreated control ([6]; HT29, IC50 concentration): 6% | cell cycle arrest at the G0/G1 phase (cell percentage) ([6]; HT29, IC80 concentration): 66.6% | decrease in S phase cell percentage ([6]; HT29, IC80 concentration): 10.7% | increase of G0/G1 phase population with respect to untreated control ([6]; HT29, IC80 concentration): 9% | changes in mitochondrial membrane potential (MMP), Rh123 staining [7]: did not produce any changes in MMP | IC50 NO [8]: 2.98 ± 0.04 µg/mL (≈ 10.4 µM) | IC50 ([8]; Mus musculus, RAW264.7, 72 h): 5.71 ± 0.14 µg/mL (≈ 19.9 µM) | IC50 ([9]; HT29, MTT, 72 h): ~3 µg/mL (≈ 10.5 µM) | cells in the S phase ([10]; ¼ IC50, 72 h): 70% | percentage of cells in the G0/G1 phase ([10]; ¼ IC50, 72 h, LPS control 100%, negative control 49.6%): 29% | changes in the G2/M phase ([10]; ¼, ½ and ¾ IC50, 72 h): not significant | cells in the S phase ([10]; ½ IC50, 72 h): 68% | percentage of cells in the G0/G1 phase ([10]; ½ IC50, 72 h): 32% | cells in the S phase ([10]; ¾ IC50, 72 h): 56% | percentage of cells in the G0/G1 phase ([10]; ¾ IC50, 72 h): 36%

CC(=O)O[C@H]1Cc2c(cc3occc3c2C)[C@@]2(C)CCCC(C)(C)[C@H]12 [sucutinirane C]
IC50 [11]: 24.4 ± 1.34 µM

Cc1c2c(cc3c1CCC1C(C)(C)CCCC31C)OC(O)C2 (centres unmarked) [Compound 6, pterolobirin G]
total apoptosis (early plus late apoptotic cells) ([3]; HT29, IC50 concentration): 18.30% | early apoptosis ([3]; HT29, IC80 concentration): 48.83% | late apoptosis ([3]; HT29, IC80 concentration): 23% | total apoptosis (early plus late apoptotic cells) ([3]; HT29, IC80 concentration): 80% | IC20 ([5]; RAW264.7, 72 h): 12.7 ± 0.3 µg/mL (≈ 42.2 µM) | IC50 ([5]; RAW264.7, 72 h): 15 ± 0.32 µg/mL (≈ 49.9 µM) | IC80 ([5]; RAW264.7, 72 h): 18.6 ± 0.45 µg/mL (≈ 61.8 µM) | decrease in S phase cell percentage ([6]; HT29, IC50 concentration): 17.3% | increase of G0/G1 phase population with respect to untreated control ([6]; HT29, IC50 concentration): 13.6% | decrease in S phase cell percentage ([6]; HT29, IC80 concentration): 30.36% | increase of G0/G1 phase population with respect to untreated control ([6]; HT29, IC80 concentration): 29% | changes in mitochondrial membrane potential (MMP), Rh123 staining [7]: did not produce any changes in MMP | inhibition of NO production [12]: did not show any significant inhibition of NO production | IC50 [9]: ~3 µg/mL (≈ 9.99 µM)
